The values below come from patent publication US20160129011A1, “BICYCLO 2,3-BENZODIAZEPINES AND SPIROCYCLICALLY SUBSTITUTED 2,3-BENZODIAZEPINES” (BAYER PHARMA AKTIENGESELLSCHAFT, priority 2013, published 2016).

One assay deals with MOLP-8 cells. Description: Cell proliferation assay (alamarBlue), MOLP-8. To be noted: multiple myeloma cell line, 120 h incubation. In kind it is cell-based. The procedure:
(§1) In accordance with the invention, the ability of the substances to inhibit cell proliferation was determined. Cell viability was determined by means of the alamarBlue® reagent (Invitrogen) in a Victor X3 Multilabel Reader (Perkin Elmer). The excitation wavelength was 530 nm and the emission wavelength […].
The MOLP-8 cells (DSMZ, ACC 569) were sown at a concentration of 4000 cells/well in 100 μl of growth medium (RPMI1640, 20% FCS) on 96-well microtitre plates.
(§2) The MDA-MB-231 cells (DSMZ, ACC 732) were sown at a concentration of 4000 cells/well in 100 μl of growth medium (DMEM/Ham's F12 medium, 10% FCS) on 96-well microtitre plates. After overnight incubation at 37° C., the fluorescence values (CI values) were determined. Then the plates were treated with various substance dilutions (1E-5 M, 3E-6 M, 1E-6 M, 3E-7 M, 1E-7 M, 3E-8 M, 1E-8 M) and incubated at 37° C. for 72 (MV4-11, LOX-IMVI cells), 96 (MOLM-13, B16F10, […] cells), 120 (MOLP-8, KMS-12-PE cells) or 168 (LAPC-4 cells) hours. Subsequently, the fluorescence values were determined (CO values). For the data analysis, the CI values were subtracted from the CO values and the results were compared between cells which had been treated with various dilutions of the substance or only with buffer solution. This was used to calculate the IC50 values (substance concentration required for 50% inhibition of cell proliferation).
(§3) The substances were examined in the cell lines of Table 1 which, in an exemplary manner, represent the stated indications: […]

Another assay has as its system MOLM-13 cells. Description: Cell proliferation assay (alamarBlue), MOLM-13. In kind it is cell-based. To be noted: acute myeloid leukaemia cell line, 96 h incubation. The method, then:
as §1
The MOLM-13 cells (DSMZ, ACC 554) were sown at a concentration of 4000 cells/well in 100 μl of growth medium (RPMI1640, 10% FCS) on 96-well microtitre plates.
as §2, §3

A further assay deals with B16F10 cells. Kind of assay: Cell proliferation assay (alamarBlue), B16F10. In kind it is cell-based. To be noted: melanoma (BRAF wild-type) cell line, 96 h incubation. The method, then:
as §1
The B16F10 cells (ATCC, CRL-6475) were sown at a concentration of 300-500 cells/well in 100 μl of growth medium (DMEM with phenol red, 10% FCS) on 96-well microtitre plates.
as §2, §3

Another assay concerns the target T1, BRD4 (BD1) (Homo sapiens, UniProt O60885).
T1 construct: longer constructs also being possible, preferably amino acids 44-168; made in house; host or cells: E. coli
Kind of assay: Binding assay BRD4/acetylated peptide H4 (TR-FRET protein-protein interaction assay). To be noted: BRD4 (BD1) / acetylated histone H4 peptide. The method in brief:
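His6-tagged BRD4 BD1 (aa 67-152, E. coli-expressed, typically 10 nM) was used with a biotinylated tetra-acetylated H4 peptide, and compounds at 0.1 nM–20 μM in duplicate. After 10 min preincubation, mixtures were incubated 1 h at 22 °C, then ≥3 h at 4 °C. Read-out was the TR-FRET 665/622 nm ratio (Eu-streptavidin to anti-His-XL665); IC50 from a 4-parameter fit.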

Another assay concerns KMS-12-PE cells. Description: Cell proliferation assay (alamarBlue), KMS-12-PE. In kind it is cell-based. To be noted: Homo sapiens, multiple myeloma cell line, 120 h incubation. The procedure:
as §1
The KMS-12-PE cells (DSMZ, ACC 606) were sown at a concentration of 4000 cells/well in 100 μl of growth medium (RPMI1640, 20% FCS) on 96-well microtitre plates.
as §2, with “proliferation). […]” for “proliferation).”

The test system of another assay is MDA-MB-231 cells. Description: Cell proliferation assay (alamarBlue), MDA-MB-231. In kind it is cell-based. To be noted: Homo sapiens, mammary carcinoma cell line, 96 h incubation. The procedure:
as §1, §2, §3

A further assay concerns LOX-IMVI cells. Kind of assay: Cell proliferation assay (alamarBlue), LOX IMVI. In kind it is cell-based. To be noted: Homo sapiens, melanoma (BRAF mutated) cell line, 72 h incubation. The procedure: as §1
The LOX-IMVI cells (NCI-60) were sown at a concentration of 1000 cells/well in 100 μl of growth medium (RPMI1640, 10% FCS) on 96-well microtitre plates.
as §2, with “proliferation). […]” for “proliferation).”

Another assay concerns LAPC-4 cells. Kind of assay: Cell proliferation assay (alamarBlue), LAPC-4. The format is cell-based. To be noted: Homo sapiens, LAPC4; prostate cancer cell line, 1 nM methyltrienolone, 168 h incubation. The procedure: as §1
The LAPC-4 cells (ATCC, PTA-1441TM) were sown at a concentration of 4000 cells/well in 100 μl of growth medium (RPMI1640, 2 mM L-glutamine, 10% cFCS) on 96-well microtitre plates. One day later, the LAPC-4 cells were treated with 1 nM methyltrienolone and various substance dilutions.
as §2, with “For the data analysis, the CI values were subtracted from the CO values and the results were compared between cells which had been treated with various dilutions of the substance or only with buffer solution. This was used to calculate the IC50 values (substance concentration required for 50% inhibition of cell proliferation).” left out

A further assay relates to MV4-11 cells. Kind of assay: Cell proliferation assay (alamarBlue), MV4-11. In kind it is cell-based. To be noted: Homo sapiens, acute myeloid leukaemia cell line, 72 h incubation. The procedure:
as §1
The MV4-11 cells (ATCC, CRL 9591) were sown at a concentration of 5000 cells/well in 100 μl of growth medium (RPMI1640, 10% FCS) on 96-well microtitre plates.
as §2, with “proliferation). […]” for “proliferation).”

Molecules are shown by their SMILES.

On to `CNC(=O)N1N=C(c2ccc(N3CCC4OCCC4C3)cc2)c2cc(OC)c(OC)cc2CC1C` (racemic) [Example 36, (±)-1-[4-(hexahydrofuro[3,2-c]pyridin-5(4H)-yl)phenyl]-7,8-dimethoxy-N,4-dimethyl-4,5-dihydro-3H-2,3-benzodiazepine-3-carboxamide], for which the IC50 was 90 nM with MOLP-8 cells (Homo sapiens, MOLP-8); 150 nM in the assay with MOLM-13 cells (Homo sapiens, MOLM-13); 70 nM in the assay with B16F10 cells (Mus musculus, B16-F10); 40 nM on BRD4 (BD1).
For `CNC(=O)N1N=C(c2ccc(N3CC4(CCC4)C3)cc2)c2cc(OC)c(OC)cc2CC1C` (racemic) [Example 37, (±)-1-[4-(2-Azaspiro[3.3]hept-2-yl)phenyl]-7,8-dimethoxy-N,4-dimethyl-4,5-dihydro-3H-2,3-benzodiazepine-3-carboxamide] the same measures were 450 nM, 420 nM, 420 nM and 170 nM.
In the case of `CNC(=O)N1N=C(c2ccc(N3CC4(CN(C)C4)C3)cc2)c2cc(OC)c(OC)cc2CC1C` (racemic) [Example 38, (±)-7,8-Dimethoxy-N,4-dimethyl-1-[4-(6-methyl-2,6-diazaspiro[3.3]hept-2-yl)phenyl]-4,5-dihydro-3H-2,3-benzodiazepine-3-carboxamide], the IC50 worked out at 140 nM with MOLP-8 cells (Homo sapiens, MOLP-8); 170 nM with MOLM-13 cells (Homo sapiens, MOLM-13); 400 nM with B16F10 cells (Mus musculus, B16-F10); 100 nM at BRD4 (BD1).
On the same counts, the results for `CNC(=O)N1N=C(c2ccc(N3C[C@@H]4C[C@H]3CN4)cc2)c2cc(OC)c(OC)cc2CC1C` (relative stereo) [Example 19, [1S-(1R*,4R*)]-1-[4-(2,5-Diazabicyclo[2.2.1]hept-2-yl)phenyl]-7,8-dimethoxy-4,5-dihydro-N,4-dimethyl-3H-2,3-benzodiazepine-3-carboxamide] are 100 nM, 170 nM, 150 nM and 140 nM.
For `CNC(=O)N1N=C(c2ccc(F)c(N3C[C@@H]4C[C@H]3CN4)c2)c2cc(OC)c(OC)cc2CC1C` (relative stereo) [Example 20, [1S-(1R*,4R*)]-1-[3-(2,5-diazabicyclo[2.2.1]hept-2-yl)-4-fluorophenyl]-7,8-dimethoxy-4,5-dihydro-N,4-dimethyl-3H-2,3-benzodiazepine-3-carboxamide] the same measures were 770 nM, 1070 nM, 1430 nM and 410 nM.
On the same counts, the results for `CNC(=O)N1N=C(c2ccc(N3C[C@@H]4C[C@H]3CN4C)cc2)c2cc(OC)c(OC)cc2CC1C` (relative stereo) [Example 40, [1S-(1R*,4R*)]-7,8-Dimethoxy-N,4-dimethyl-1-[4-(5-methyl-2,5-diazabicyclo[2.2.1]hept-2-yl)phenyl]-4,5-dihydro-3H-2,3-benzodiazepine-3-carboxamide] are 240 nM, 390 nM, 450 nM and 180 nM.
Regarding `CNC(=O)N1N=C(c2ccc(N3C[C@@H]4C[C@H]3CN4C)cc2)c2cc(OC)c(OC)cc2C[C@H]1C` (relative stereo) [Example 40.1, [1S-[1R*,2(S*),4R*]]-7,8-Dimethoxy-N,4-dimethyl-1-[4-(5-methyl-2,5-diazabicyclo[2.2.1]hept-2-yl)phenyl]-4,5-dihydro-3H-2,3-benzodiazepine-3-carboxamide], the IC50 came to 100 nM in the assay on MOLP-8 cells, 200 nM in the assay on MOLM-13 cells, 210 nM with B16F10 cells and 70 nM on BRD4 (BD1).
In the case of `CNC(=O)N1N=C(c2ccc(F)c(N3C[C@@H]4C[C@H]3CN4C)c2)c2cc(OC)c(OC)cc2CC1C` (relative stereo) [Example 41, [1S-(1R*,4R*)]-1-[4-fluoro-3-(5-methyl-2,5-diazabicyclo[2.2.1]hept-2-yl)phenyl]-7,8-dimethoxy-4,5-dihydro-N,4-dimethyl-3H-2,3-benzodiazepine-3-carboxamide], the IC50 with MOLP-8 cells (Homo sapiens, MOLP-8) came to 690 nM; in the assay with MOLM-13 cells (Homo sapiens, MOLM-13), 1140 nM; with B16F10 cells (Mus musculus, B16-F10), 1470 nM; on BRD4 (BD1), 430 nM.
`CNC(=O)N1N=C(c2ccc(N3CC4(CCS4(=O)=O)C3)cc2)c2cc(OC)c(OC)cc2C[C@@H]1C` [Example 3.1, (4S)-1-[4-(1,1-Dioxido-1-thia-6-azaspiro[3.3]hept-6-yl)phenyl]-7,8-dimethoxy-N,4-dimethyl-4,5-dihydro-3H-2,3-benzodiazepine-3-carboxamide]: the IC50 with KMS-12-PE cells was found to be 50 nM; with MOLP-8 cells (Homo sapiens, MOLP-8) it was 40 nM; in the assay on MDA-MB-231 cells, 80 nM; in the assay with MOLM-13 cells (Homo sapiens, MOLM-13), 70 nM; in the assay with LOX-IMVI cells, 280 nM; in the assay on B16F10 cells (Mus musculus, B16-F10) it was 40 nM. In addition, the results for the IC50 in the assay with LAPC-4 cells, at BRD4 (BD1) and in the assay on MV4-11 cells were 20 nM, 20 nM and 40 nM, respectively.
For `CNC(=O)N1N=C(c2ccc(N3CC4(CN(C(=O)OC(C)(C)C)C4)C3)cc2)c2cc(OC)c(OC)cc2C[C@@H]1C` [Example 8.1, tert-butyl 6-{4-[(4S)-7,8-dimethoxy-4-methyl-3-(methylcarbamoyl)-4,5-dihydro-3H-2,3-benzodiazepine-1-yl)phenyl}-2,6-diazaspiro[3.3]heptane-2-carboxylate], the IC50 amounted to 100 nM with MOLP-8 cells (Homo sapiens, MOLP-8); 180 nM with MOLM-13 cells (Homo sapiens, MOLM-13); 130 nM in the assay on B16F10 cells (Mus musculus, B16-F10); 60 nM on BRD4 (BD1).
On to `CNC(=O)N1N=C(c2ccc(N3CC4(CCS4(=O)=O)C3)cc2)c2cc(-n3nc(C)cc3C)ccc2C[C@H]1C` [Example 17.1, (4R)-8-(3,5-Dimethyl-1H-pyrazol-1-yl)-1-[4-(1,1-dioxido-1-thia-6-azaspiro[3.3]hept-6-yl)phenyl]-N,4-dimethyl-4,5-dihydro-3H-2,3-benzodiazepine-3-carboxamide], for which the IC50 was determined as 4320 nM with MOLP-8 cells (Homo sapiens, MOLP-8); 6740 nM in the assay with MOLM-13 cells (Homo sapiens, MOLM-13); 5590 nM with B16F10 cells (Mus musculus, B16-F10); 1470 nM at BRD4 (BD1).
As to `CNC(=O)N1N=C(c2ccc(N3CC4(CCS4(=O)=O)C3)cc2)c2cc(-n3nc(C)cc3C)ccc2C[C@@H]1C` [Example 17.2, (4S)-8-(3,5-Dimethyl-1H-pyrazol-1-yl)-1-[4-(1,1-dioxido-1-thia-6-azaspiro[3.3]hept-6-yl)phenyl]-N,4-dimethyl-4,5-dihydro-3H-2,3-benzodiazepine-3-carboxamide], the IC50 in the assay with MOLP-8 cells (Homo sapiens, MOLP-8) was determined as 60 nM; in the assay on MOLM-13 cells (Homo sapiens, MOLM-13), 100 nM; with B16F10 cells (Mus musculus, B16-F10) it was 80 nM; on BRD4 (BD1), 10 nM.
On the same counts, the results for `CNC(=O)N1N=C(c2ccc(N3CC4(CCS4(=O)=O)C3)cc2)c2cc(OC(F)(F)F)ccc2C[C@@H]1C` [Example 18.2, (4S)-1-[4-(1,1-dioxido-1-thia-6-azaspiro[3.3]hept-6-yl)phenyl]-N,4-dimethyl-8-(trifluoromethoxy)-4,5-dihydro-3H-2,3-benzodiazepine-3-carboxamide] are 30 nM, 30 nM, 30 nM and 10 nM.
